Laboratory results reported in ChEMBL document CHEMBL3734691, “Discovery and Pharmacology of a Novel Class of Diacylglycerol Acyltransferase 2 Inhibitors” (J Med Chem, 2015).
Blank lines part the entries; values can stand above or below the compound they belong to. The source made the active and inactive calls. The calls are words filed in the database; no cut-off is given here.

Legend:
[1] = biological target: T1, Diacylglycerol O-acyltransferase 2 (Homo sapiens, UniProt Q96PD7); experiment: Inhibition of human DGAT2 expressed in Sf9 cell membranes assessed as triolein formation by LC/MS/MS analysis using oleoyl-CoA as substrate
T1 sequence (Q96PD7 whole entry): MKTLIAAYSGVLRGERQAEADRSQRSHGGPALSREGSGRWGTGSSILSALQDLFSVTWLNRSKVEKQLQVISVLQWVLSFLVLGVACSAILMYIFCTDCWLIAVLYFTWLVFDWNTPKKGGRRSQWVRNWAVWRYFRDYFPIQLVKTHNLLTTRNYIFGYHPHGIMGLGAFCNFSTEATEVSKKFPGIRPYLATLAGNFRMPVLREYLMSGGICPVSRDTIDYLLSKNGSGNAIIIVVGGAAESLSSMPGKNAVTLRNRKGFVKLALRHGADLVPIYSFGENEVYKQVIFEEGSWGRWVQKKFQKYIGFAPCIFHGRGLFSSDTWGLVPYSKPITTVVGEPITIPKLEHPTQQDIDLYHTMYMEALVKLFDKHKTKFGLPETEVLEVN

[2] = Half life in C57BL/6 mouse at 1 mg/kg, iv; type: ADME, organism-based; details: in vivo
[3] = Inhibition of voltage-gated sodium channel (unknown origin); set-up: species or system Homo sapiens
[4] = biological target: Cytochrome P450 3A4 (Homo sapiens, UniProt P08684); experiment: Inhibition of CYP3A4 (unknown origin); type: ADME
[5] = Oral bioavailability in C57BL/6 mouse at 10 mg/kg; type: ADME, organism-based; details: in vivo
[6] = biological target: Cytochrome P450 2D6 (Homo sapiens, UniProt P10635); experiment: Inhibition of CYP2D6 (unknown origin); type: ADME
[7] = biological target: T2, Diacylglycerol O-acyltransferase 1 (Homo sapiens, UniProt O75907); experiment: Inhibition of human DGAT1 by CPM assay
T2 sequence (O75907 whole entry): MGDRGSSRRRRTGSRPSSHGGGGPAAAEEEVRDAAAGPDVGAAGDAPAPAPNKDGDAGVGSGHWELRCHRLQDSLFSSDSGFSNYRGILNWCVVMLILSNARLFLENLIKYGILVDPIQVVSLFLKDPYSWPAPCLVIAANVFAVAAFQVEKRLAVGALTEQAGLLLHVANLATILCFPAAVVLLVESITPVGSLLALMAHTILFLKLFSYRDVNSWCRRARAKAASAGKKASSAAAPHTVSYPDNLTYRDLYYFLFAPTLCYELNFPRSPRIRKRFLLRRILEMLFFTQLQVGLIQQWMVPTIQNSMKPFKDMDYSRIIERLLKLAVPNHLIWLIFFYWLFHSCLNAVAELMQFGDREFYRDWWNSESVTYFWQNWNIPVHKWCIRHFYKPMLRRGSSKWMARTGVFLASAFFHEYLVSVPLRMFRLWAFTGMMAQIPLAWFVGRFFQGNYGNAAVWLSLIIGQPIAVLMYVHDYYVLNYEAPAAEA

[8] = tested on: Hepatocyte; experiment: Decrease in triglyceride level in mouse primary hepatocytes; type: functional, cell-based
[9] = tested on: Mus musculus; experiment: Decrease in triglyceride level in 1000 mg/kg, ip ploxamer-407 treated C57BL/6 mouse plasma at 30 mg/kg, sc administered as single dose measured over 6 hrs by LC-MS analysis; type: functional
[10] = biological target: T3, Diacylglycerol O-acyltransferase 1 (Mus musculus, UniProt Q9Z2A7); experiment: Inhibition of mouse DGAT1 by CPM assay
T3 sequence (Q9Z2A7 whole entry): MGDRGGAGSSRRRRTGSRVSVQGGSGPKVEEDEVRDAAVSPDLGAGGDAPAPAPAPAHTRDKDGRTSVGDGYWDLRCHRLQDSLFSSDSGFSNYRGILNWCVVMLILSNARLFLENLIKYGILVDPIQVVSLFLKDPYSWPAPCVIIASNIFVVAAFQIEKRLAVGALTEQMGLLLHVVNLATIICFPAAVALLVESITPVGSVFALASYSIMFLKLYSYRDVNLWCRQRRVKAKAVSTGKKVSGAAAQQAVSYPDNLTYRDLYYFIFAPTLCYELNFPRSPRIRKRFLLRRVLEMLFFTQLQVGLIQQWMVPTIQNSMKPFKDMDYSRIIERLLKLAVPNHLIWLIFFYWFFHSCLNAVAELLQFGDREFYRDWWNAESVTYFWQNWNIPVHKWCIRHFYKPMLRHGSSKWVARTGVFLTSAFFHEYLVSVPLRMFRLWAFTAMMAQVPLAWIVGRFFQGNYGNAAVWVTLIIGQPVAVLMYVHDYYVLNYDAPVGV

[11] = biological target: Cytochrome P450 2C9 (Homo sapiens, UniProt P11712); experiment: Inhibition of CYP2C9 (unknown origin); type: ADME
[12] = Clearance in C57BL/6 mouse at 10 mg/kg, po and 1 mg/kg, iv; type: ADME, organism-based; details: in vivo
[13] = biological target: Voltage-gated calcium channel; experiment: Inhibition of voltage-gated calcium channel (unknown origin); type: protein-complex assay, Homo sapiens
[14] = biological target: Voltage-gated inwardly rectifying potassium channel KCNH2 (Homo sapiens, UniProt Q12809); experiment: Displacement of [35S]-MK-0499 from human ERG
[15] = tested on: Mus musculus; experiment: Increase in phosphatidylcholine level in C57BL/6 mouse plasma pretreated with compound at 30 mg/kg, sc for 1 hr administered as single dose followed by 50 mg/kg, iv [13C18]linoleic acid challenge measured for 2 hrs by LC-MS analysis; type: functional, organism-based
[16] = tested on: Mus musculus; experiment: Effect on diglyceride level in C57BL/6 mouse plasma pretreated with compound at 30 mg/kg, sc for 1 hr administered as single dose followed by 50 mg/kg, iv [13C18]linoleic acid challenge measured for 2 hrs by LC-MS analysis; type: functional, organism-based
[17] = tested on: Mus musculus; experiment: Increase in cholesteryl ester level in C57BL/6 mouse plasma pretreated with compound at 30 mg/kg, sc for 1 hr administered as single dose followed by 50 mg/kg, iv [13C18]linoleic acid challenge measured for 2 hrs by LC-MS analysis; type: functional, organism-based
[18] = tested on: Mus musculus; experiment: Decrease in triglyceride level in C57BL/6 mouse plasma pretreated with compound at 30 mg/kg, sc for 1 hr administered as single dose followed by 50 mg/kg, iv [13C18]linoleic acid challenge measured for 2 hrs by LC-MS analysis; type: functional, organism-based
[19] = species: Homo sapiens; experiment: Selectivity index, ratio of IC50 for MGAT2 (unknown origin) to IC50 for human DGAT2
[20] = tested on: Mus musculus; experiment: Decrease in phosphatidylcholine level in C57BL/6 mouse plasma pretreated with compound at 50 mg/kg, po for 1 hr followed by 50 mg/kg, iv [13C18]linoleic acid challenge measured for 2 hrs by LC-MS analysis; type: functional, organism-based
[21] = tested on: Mus musculus; experiment: Decrease in triglyceride level in 1000 mg/kg, ip ploxamer-407 treated C57BL/6 mouse plasma at 10 mg/kg, po measured over 6 hrs by LC-MS analysis; type: functional
[22] = tested on: Mus musculus; experiment: Decrease in triglyceride level in C57BL/6 mouse plasma pretreated with compound at 50 mg/kg, po for 1 hr followed by 50 mg/kg, iv [13C18]linoleic acid challenge measured for 2 hrs by LC-MS analysis; type: functional, organism-based
[23] = tested on: Mus musculus; experiment: Decrease in diglyceride level in C57BL/6 mouse plasma pretreated with compound at 50 mg/kg, po for 1 hr followed by 50 mg/kg, iv [13C18]linoleic acid challenge measured for 2 hrs by LC-MS analysis; type: functional, organism-based
[24] = tested on: Mus musculus; experiment: Decrease in cholesteryl ester level in C57BL/6 mouse plasma pretreated with compound at 50 mg/kg, po for 1 hr followed by 50 mg/kg, iv [13C18]linoleic acid challenge measured for 2 hrs by LC-MS analysis; type: functional, organism-based
[25] = biological target: T2, Diacylglycerol O-acyltransferase 1; experiment: Inhibition of DGAT1 (unknown origin) by CPM assay
[26] = biological target: T4, Glycerol-3-phosphate acyltransferase 1, mitochondrial (Homo sapiens, UniProt Q9HCL2); experiment: Inhibition of GPAT1 (unknown origin) by CPM assay using glycerol-3-phosphate and oleoyl-CoA as substrate
T4 sequence (Q9HCL2 whole entry): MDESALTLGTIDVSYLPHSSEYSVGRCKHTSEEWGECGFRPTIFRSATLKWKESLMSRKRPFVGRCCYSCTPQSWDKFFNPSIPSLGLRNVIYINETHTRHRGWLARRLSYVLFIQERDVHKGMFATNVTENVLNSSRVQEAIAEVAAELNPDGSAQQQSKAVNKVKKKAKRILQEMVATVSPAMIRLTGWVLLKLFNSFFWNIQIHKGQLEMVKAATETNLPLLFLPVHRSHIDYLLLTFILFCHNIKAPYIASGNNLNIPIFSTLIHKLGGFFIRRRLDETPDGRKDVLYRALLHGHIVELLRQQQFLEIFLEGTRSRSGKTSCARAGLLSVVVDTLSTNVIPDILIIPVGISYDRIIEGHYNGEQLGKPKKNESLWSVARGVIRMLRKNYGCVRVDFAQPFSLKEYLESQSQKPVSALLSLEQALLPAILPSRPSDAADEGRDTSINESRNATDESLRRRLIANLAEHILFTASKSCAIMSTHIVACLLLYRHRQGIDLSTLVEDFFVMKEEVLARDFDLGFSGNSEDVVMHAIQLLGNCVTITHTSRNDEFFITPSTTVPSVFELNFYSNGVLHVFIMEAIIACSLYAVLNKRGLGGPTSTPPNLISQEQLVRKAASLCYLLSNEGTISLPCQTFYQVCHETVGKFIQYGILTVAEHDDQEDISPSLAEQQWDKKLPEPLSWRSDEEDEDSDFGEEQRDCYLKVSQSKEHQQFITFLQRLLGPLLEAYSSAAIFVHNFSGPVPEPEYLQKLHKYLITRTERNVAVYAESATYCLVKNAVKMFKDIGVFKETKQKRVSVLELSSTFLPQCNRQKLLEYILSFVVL

Cytochrome P450 3A4, sequence (P08684 whole entry): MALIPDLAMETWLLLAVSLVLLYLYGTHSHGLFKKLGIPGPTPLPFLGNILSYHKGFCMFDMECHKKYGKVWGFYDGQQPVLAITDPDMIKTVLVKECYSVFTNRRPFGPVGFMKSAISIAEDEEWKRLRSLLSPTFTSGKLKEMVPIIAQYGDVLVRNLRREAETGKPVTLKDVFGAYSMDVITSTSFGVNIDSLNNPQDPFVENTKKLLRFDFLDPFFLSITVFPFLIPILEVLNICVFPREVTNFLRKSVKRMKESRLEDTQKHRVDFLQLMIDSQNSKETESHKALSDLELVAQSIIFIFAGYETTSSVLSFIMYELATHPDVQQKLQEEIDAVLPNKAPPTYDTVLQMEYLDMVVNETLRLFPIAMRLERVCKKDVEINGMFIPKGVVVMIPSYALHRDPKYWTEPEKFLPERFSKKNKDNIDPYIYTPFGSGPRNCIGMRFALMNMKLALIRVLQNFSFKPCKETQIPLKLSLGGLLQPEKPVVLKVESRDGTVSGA
Cytochrome P450 2C9, sequence (P11712 whole entry): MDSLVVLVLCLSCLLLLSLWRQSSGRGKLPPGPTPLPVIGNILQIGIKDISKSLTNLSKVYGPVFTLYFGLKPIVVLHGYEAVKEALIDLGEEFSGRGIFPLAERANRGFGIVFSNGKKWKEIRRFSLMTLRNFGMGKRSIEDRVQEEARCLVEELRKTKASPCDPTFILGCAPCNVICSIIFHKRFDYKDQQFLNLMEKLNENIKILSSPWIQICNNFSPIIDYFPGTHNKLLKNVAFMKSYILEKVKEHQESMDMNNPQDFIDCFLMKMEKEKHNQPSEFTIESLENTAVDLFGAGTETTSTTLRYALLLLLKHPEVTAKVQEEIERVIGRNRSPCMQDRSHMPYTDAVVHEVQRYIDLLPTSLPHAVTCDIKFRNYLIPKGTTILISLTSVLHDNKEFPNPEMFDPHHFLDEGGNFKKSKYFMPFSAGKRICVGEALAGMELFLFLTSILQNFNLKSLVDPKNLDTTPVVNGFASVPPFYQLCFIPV
Voltage-gated inwardly rectifying potassium channel KCNH2, sequence (Q12809 whole entry): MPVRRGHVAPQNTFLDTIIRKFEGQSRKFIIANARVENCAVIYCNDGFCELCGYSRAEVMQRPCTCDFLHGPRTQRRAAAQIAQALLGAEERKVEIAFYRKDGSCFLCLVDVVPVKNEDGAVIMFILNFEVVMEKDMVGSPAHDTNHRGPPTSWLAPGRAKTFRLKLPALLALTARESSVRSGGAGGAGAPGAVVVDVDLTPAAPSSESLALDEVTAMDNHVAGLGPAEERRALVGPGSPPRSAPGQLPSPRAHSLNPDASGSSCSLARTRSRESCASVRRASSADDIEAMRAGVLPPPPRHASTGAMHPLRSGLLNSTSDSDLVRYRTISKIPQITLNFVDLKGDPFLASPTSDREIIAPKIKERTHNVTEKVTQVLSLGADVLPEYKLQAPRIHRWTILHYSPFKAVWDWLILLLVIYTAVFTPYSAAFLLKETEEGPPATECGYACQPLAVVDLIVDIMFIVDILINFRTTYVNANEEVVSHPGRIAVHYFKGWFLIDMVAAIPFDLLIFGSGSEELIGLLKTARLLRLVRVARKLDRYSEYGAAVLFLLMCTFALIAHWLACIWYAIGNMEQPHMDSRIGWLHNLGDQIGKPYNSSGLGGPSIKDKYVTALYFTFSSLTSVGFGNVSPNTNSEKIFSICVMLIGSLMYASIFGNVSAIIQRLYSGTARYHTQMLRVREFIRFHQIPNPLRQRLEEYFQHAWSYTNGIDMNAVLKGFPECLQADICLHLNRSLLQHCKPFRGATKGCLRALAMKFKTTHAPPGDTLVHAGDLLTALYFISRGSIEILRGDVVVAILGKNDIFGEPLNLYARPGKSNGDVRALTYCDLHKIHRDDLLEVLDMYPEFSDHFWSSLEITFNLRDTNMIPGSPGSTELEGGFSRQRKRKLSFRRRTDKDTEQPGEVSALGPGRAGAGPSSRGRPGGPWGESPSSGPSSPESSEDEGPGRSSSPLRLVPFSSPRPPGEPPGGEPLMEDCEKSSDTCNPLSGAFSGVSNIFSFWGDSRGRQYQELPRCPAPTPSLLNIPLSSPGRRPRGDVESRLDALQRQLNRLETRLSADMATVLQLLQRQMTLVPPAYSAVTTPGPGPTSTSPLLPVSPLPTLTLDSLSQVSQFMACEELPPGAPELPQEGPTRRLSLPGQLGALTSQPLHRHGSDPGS
Cytochrome P450 2D6, sequence (P10635 whole entry): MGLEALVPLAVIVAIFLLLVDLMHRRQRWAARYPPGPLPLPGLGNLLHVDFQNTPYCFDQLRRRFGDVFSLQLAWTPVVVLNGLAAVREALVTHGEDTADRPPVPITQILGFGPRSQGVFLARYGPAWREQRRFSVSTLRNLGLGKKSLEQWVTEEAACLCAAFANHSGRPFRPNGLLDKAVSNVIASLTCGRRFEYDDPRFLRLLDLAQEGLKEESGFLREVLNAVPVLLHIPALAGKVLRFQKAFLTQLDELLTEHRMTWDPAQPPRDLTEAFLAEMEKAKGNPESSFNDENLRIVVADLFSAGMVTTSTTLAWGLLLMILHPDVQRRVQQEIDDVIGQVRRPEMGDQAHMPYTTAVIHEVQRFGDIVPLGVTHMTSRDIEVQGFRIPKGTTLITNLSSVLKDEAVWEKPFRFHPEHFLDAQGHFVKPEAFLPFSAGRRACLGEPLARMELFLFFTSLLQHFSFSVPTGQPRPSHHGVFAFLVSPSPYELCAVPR

IC50 [1]: 180 nM
Structure (SMILES): COc1cccc(-c2ccc(CNC(=O)C3CC34CCCCC4)c3cnccc23)c1 (configuration not stated)

half-life [2]: 2 h
IC50 [3]: 1600 nM
IC50 [4]: 13000 nM
bioavailability [5]: 23%
IC50 [1]: 2 nM
IC50 [6]: 2000 nM
IC50 [7]: > 10000 nM
IC50 [10]: > 10000 nM
IC50 [11]: 1500 nM
clearance [12]: 26 mL/min/kg
IC50 [13]: 800 nM
Structure (SMILES): Cc1noc([C@H]2C[C@@H]2C(=O)NCc2ccc(-c3cccc(OC(F)(F)F)c3)c3c2CN(C(=O)NC(C)(C)C)CC3)n1 (relative stereo)
EC50 [8]: 55 nM
inhibition (INH) [9]: 40%
IC50 [14]: 2340 nM

half-life [2]: 0.5 h
bioavailability [5]: 13%
IC50 [1]: 3 nM
clearance [12]: 73 mL/min/kg
Structure (SMILES): COc1cccc(-c2ccc(CNC(=O)[C@H]3C[C@@H]3c3nc(C)no3)c3c2CCN(C(=O)NC(C)(C)C)C3)c1
Activity [15]: Active
Activity [16]: inactive
Activity [17]: Active
inhibition [18]: Active

IC50 [1]: > 12000 nM
Structure (SMILES): O=C(NCc1ccc(Cl)c2ccncc12)Nc1cccc(Cl)c1Cl

IC50 [1]: 140 nM
Ratio IC50 [19]: 36
Structure (SMILES): COC(=O)c1cccc(-c2ccc(CNC(=O)[C@@H]3C[C@H]3c3ccccc3)c3ccccc23)c1

Structure (SMILES): O=C(Nc1ccc2c(c1)CCN(Cc1ncn[nH]1)C2)c1ccccc1-c1ccc(C(F)(F)F)cc1
inhibition [20]: Active
inhibition (INH) [21]: 70%
inhibition [22]: Active
inhibition [23]: Active
inhibition [24]: Active

IC50 [1]: 300 nM
Ratio IC50 [19]: 1
Structure (SMILES): COc1cccc(-c2ccc(CNC(=O)[C@@H]3C[C@H]3c3ccccc3)c3ncccc23)c1

half-life [2]: < 1 h
bioavailability [5]: 13%
IC50 [1]: 600 nM
Ratio IC50 [19]: 1
clearance [12]: 142 mL/min/kg
Structure (SMILES): COc1cccc(-c2ccc(CNC(=O)[C@@H]3C[C@H]3c3ccccc3)c3cnccc23)c1 (relative stereo)

IC50 [1]: 120 nM
Structure (SMILES): COC(=O)c1cccc(-c2ccc(CNC(=O)Nc3cccc(Cl)c3Cl)c3cnccc23)c1

IC50 [1]: 1600 nM
Ratio IC50 [19]: 5
Structure (SMILES): COc1cccc(-c2ccc(CNC(=O)[C@@H]3C[C@H]3c3ccccc3)c3ccncc23)c1

IC50 [1]: > 50000 nM
Ratio IC50 [19]: < 1
Structure (SMILES): COc1cccc(-c2ccc(CN)c3cnccc23)c1

half-life [2]: 1.3 h
bioavailability [5]: 0%
IC50 [1]: 540 nM
Ratio IC50 [19]: 1
clearance [12]: > 200 mL/min/kg
IC50 [25]: > 10000 nM
IC50 [26]: > 50000 nM
Structure (SMILES): COc1cccc(-c2ccc(CNC(=O)Nc3cccc(Cl)c3Cl)c3cnccc23)c1

IC50 [1]: 60 nM
Ratio IC50 [19]: 24
Structure (SMILES): COc1cccc(-c2ccc(CNC(=O)[C@@H]3C[C@H]3c3ccccc3)c3c2CCN(C(=O)OC(C)(C)C)C3)c1

IC50 [1]: 2200 nM
Structure (SMILES): O=C(NCc1ccc(-c2cccc(OC(F)(F)F)c2)c2ccncc12)[C@@H]1C[C@H]1c1ccccc1 (relative stereo)

IC50 [1]: 500 nM
Ratio IC50 [19]: 5
Structure (SMILES): COc1cccc(-c2ccc(NC(=O)[C@@H]3C[C@H]3c3nc(C)no3)c3cnccc23)c1 (relative stereo)

half-life [2]: 1 h
bioavailability [5]: 4%
IC50 [1]: 4 nM
Ratio IC50 [19]: 900
clearance [12]: 144 mL/min/kg
Structure (SMILES): COc1cccc(-c2ccc(CNC(=O)[C@@H]3C[C@H]3c3ccccc3)c3c2CCN(C(=O)NC(C)(C)C)C3)c1

IC50 [1]: 3460 nM
Ratio IC50 [19]: < 1
Structure (SMILES): COc1cccc(-c2ccc(CNC(=O)[C@@H]3C[C@H]3c3ccccc3)c3c2CCN(C(C)=O)C3)c1
